Literature values as cited in article PMC9705454 (Clinical Drug Investigation, 2022).

What was measured:
[1] = metabolite slowly released from the subcutaneous depot

Substance | half-life in circulation | share of plasma exposure accounted for by the main active metabolite [1]
teduglutide | approximately 2 h | 
insulin glargine |  | > 90%
